Data taken from patent US11077090B2, “Compounds and compositions and uses thereof” (Sunovion Pharmaceuticals Inc., priority 2016, dated 2021).

Tests used:
Male C57Bl/6J mice = assay: Marble burying test; type: in vivo; set-up: key: −: No reduction in number of marbles buried; +: Significant reduction in number of marbles buried (P < 0.05 vs vehicle)
Method: The marble burying assay is used to evaluate the anxiolytic activity of a test compound. After placement in a novel cage containing glass marbles, mice will bury the marbles. Acute administration of anxiolytic agents, as well as antidepressants, decrease this activity at non-sedating doses. Male C57Bl/6J mice from Jackson Laboratories were used in this study and were acclimatized to the experimental room for at least 1 hour prior to testing. Mice (n=10 per group) were administered sterile water or test compound intraperitoneally (i.p.) or orally by gavage (p.o.), or the positive control chlordiazepoxide (15 mg/kg, i.p.), in 10 mL/kg injection volumes, and returned to their home cages for a 30-minute pretreatment period. The mice were then placed individually in clean cages, containing hard wood bedding and twenty black marbles placed in spaced rows of 4×5. After a 30-minute test session, the number of buried marbles was counted. A marble was considered buried if it was pushed at least two thirds into the bedding. Locomotor activity was monitored by measuring the distance traveled using an overhead camera and Video Tracker Software (ViewPoint Life Sciences Software, France). A reduction in the number of marbles buried relative to the vehicle condition indicates an anxiolytic drug-like effect.

compound-treated mice = assay: Neuropharmacological assay (SmartCube): behavioral activity signature and minimal effective dose; type: in vivo; details: for Potency: minimal effective dose (MED), binned / minimal effective dose: MED = dose having 50% or more total activity; for AD: ADHD (probability of activity signature) / AG: analgesic (probability of activity signature) / AX: anxiolytic (probability of activity signature) / CE: cognitive enhancer (probability of activity signature) / DP: anti-depressant (probability of activity signature) / MS: mood stabilizer (probability of activity signature) / PS: anti-psychotic (probability of activity signature) / SD: sedative hypnotic (probability of activity signature) / UN: uncharacterized CNS activity (probability of activity signature): i.p. 15 min before test, most efficacious dose(s); for minimal effective dose: Mus musculus, ip, read-out: Potency: minimal effective dose (MED), binned
Method in brief: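 Mice dosed i.p. 15 min before test, compound in N-methyl-2-pyrrolidone/PEG/propylene glycol, 3 doses; video-captured behavior matched to reference-drug signatures, giving per-class probabilities at most efficacious dose. MED from doses typically 0.3–30 mpk, defined as lowest dose with ≥50% total activity.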

| Molecule | Marbles Buried (Male C57Bl/6J mice; 1 mg/kg (i.p.)) | Potency: minimal effective dose (MED), binned (compound-treated mice) | AD: ADHD (probability of activity signature) (compound-treated mice) | AG: analgesic (probability of activity signature) (compound-treated mice) | AX: anxiolytic (probability of activity signature) (compound-treated mice) | CE: cognitive enhancer (probability of activity signature) (compound-treated mice) | DP: anti-depressant (probability of activity signature) (compound-treated mice) | MS: mood stabilizer (probability of activity signature) (compound-treated mice) | PS: anti-psychotic (probability of activity signature) (compound-treated mice) | SD: sedative hypnotic (probability of activity signature) (compound-treated mice) | UN: uncharacterized CNS activity (probability of activity signature) (compound-treated mice) | Marbles Buried (Male C57Bl/6J mice; 3 mg/kg (i.p.)) | Marbles Buried (Male C57Bl/6J mice; 10 mg/kg (i.p.)) | minimal effective dose (compound-treated mice) |
| --- | --- | --- | --- | --- | --- | --- | --- | --- | --- | --- | --- | --- | --- | --- |
| C[C@@H]1OCc2cccc(Cl)c2[C@H]1N (single isomer, unassigned) [Compound 160] | − |  |  |  |  |  |  |  |  |  |  |  |  |  |
| CC[C@@H]1OCc2ccccc2[C@H]1N (single isomer, unassigned) [Compound 195] | − |  |  |  |  |  |  |  |  |  |  |  |  |  |
| C[C@@H]1OCc2cccc(Cl)c2[C@H]1N (single isomer, unassigned) [Example 160] |  | A (≤3 mpk) | + (LOQ ≤ + <5%) | ++ (5% ≤ ++ <25%) | ++ (5% ≤ ++ <25%) | ++ (5% ≤ ++ <25%) | + (LOQ ≤ + <5%) | + (LOQ ≤ + <5%) | ++ (5% ≤ ++ <25%) | + (LOQ ≤ + <5%) | +++ (25% ≤ +++ <50%) | − | + |  |
| CC[C@@H]1OCc2ccccc2[C@H]1N (single isomer, unassigned) [Example 195] |  | A (≤3 mpk) | + (LOQ ≤ + <5%) | ++ (5% ≤ ++ <25%) | ++ (5% ≤ ++ <25%) | ++ (5% ≤ ++ <25%) | ++ (5% ≤ ++ <25%) | + (LOQ ≤ + <5%) | ++ (5% ≤ ++ <25%) | ++ (5% ≤ ++ <25%) | ++++ (50% ≤ ++++) | − | + |  |
| CCN(C)C(=O)Oc1ccc2c(c1)CO[C@@H](C)[C@H]2N.Cl [Example 279] |  |  | + (LOQ ≤ + <5%) | + (LOQ ≤ + <5%) | + (LOQ ≤ + <5%) | + (LOQ ≤ + <5%) | ++ (5% ≤ ++ <25%) | +++ (25% ≤ +++ <50%) | ++ (5% ≤ ++ <25%) | ++ (5% ≤ ++ <25%) | ++ (5% ≤ ++ <25%) |  |  | 3 to 10 mg/kg |
| CCN(C)C(=O)Oc1ccc2c(c1)CO[C@H](C)[C@H]2N.Cl [Example 280] |  |  | + (LOQ ≤ + <5%) | + (LOQ ≤ + <5%) | + (LOQ ≤ + <5%) | ++ (5% ≤ ++ <25%) | ++ (5% ≤ ++ <25%) | ++ (5% ≤ ++ <25%) | + (LOQ ≤ + <5%) | ++ (5% ≤ ++ <25%) | + (LOQ ≤ + <5%) |  |  | 3 to 10 mg/kg |
| CCN(C)C(=O)Oc1ccc2c(c1)[C@H](N)[C@H](C)OC2.Cl [Example 281] |  |  | + (LOQ ≤ + <5%) | + (LOQ ≤ + <5%) | + (LOQ ≤ + <5%) | + (LOQ ≤ + <5%) | + (LOQ ≤ + <5%) | + (LOQ ≤ + <5%) | + (LOQ ≤ + <5%) | + (LOQ ≤ + <5%) | + (LOQ ≤ + <5%) |  |  | > 30 mg/kg |
| CCN(C)C(=O)Oc1ccc2c(c1)[C@H](N)[C@@H](C)OC2.Cl [Example 282] |  |  | + (LOQ ≤ + <5%) | + (LOQ ≤ + <5%) | + (LOQ ≤ + <5%) | + (LOQ ≤ + <5%) | + (LOQ ≤ + <5%) | + (LOQ ≤ + <5%) | + (LOQ ≤ + <5%) | ++ (5% ≤ ++ <25%) | + (LOQ ≤ + <5%) |  |  | > 30 mg/kg |
| CCN(C)C(=O)Oc1ccc2c(c1)COCC2N(C)C.Cl (stereo not shown) [Example 283] |  |  | ++ (5% ≤ ++ <25%) | + (LOQ ≤ + <5%) | ++ (5% ≤ ++ <25%) | + (LOQ ≤ + <5%) | ++ (5% ≤ ++ <25%) | +++ (25% ≤ +++ <50%) | ++ (5% ≤ ++ <25%) | ++ (5% ≤ ++ <25%) | ++ (5% ≤ ++ <25%) |  |  | 3 to 10 mg/kg |
| CCN(C)C(=O)Oc1ccc2c(c1)C(N(C)C)COC2.Cl (stereo not shown) [Example 284] |  |  | + (LOQ ≤ + <5%) | + (LOQ ≤ + <5%) | ++ (5% ≤ ++ <25%) | + (LOQ ≤ + <5%) | ++ (5% ≤ ++ <25%) | +++ (25% ≤ +++ <50%) | ++ (5% ≤ ++ <25%) | ++ (5% ≤ ++ <25%) | + (LOQ ≤ + <5%) |  |  | 10 to 30 mg/kg |
| CCN(C)C(=O)Oc1ccc2c(c1)CO[C@@H](C)[C@H]2N(C)C.Cl [Example 285] |  |  | ++ (5% ≤ ++ <25%) | + (LOQ ≤ + <5%) | ++ (5% ≤ ++ <25%) | + (LOQ ≤ + <5%) | ++ (5% ≤ ++ <25%) | ++++ (50% ≤ ++++) | ++++ (50% ≤ ++++) | + (LOQ ≤ + <5%) | ++ (5% ≤ ++ <25%) |  |  | 3 to 10 mg/kg |
| CCN(C)C(=O)Oc1ccc2c(c1)CO[C@H](C)[C@H]2N(C)C.Cl [Example 286] |  |  | + (LOQ ≤ + <5%) | + (LOQ ≤ + <5%) | + (LOQ ≤ + <5%) | + (LOQ ≤ + <5%) | ++ (5% ≤ ++ <25%) | ++ (5% ≤ ++ <25%) | + (LOQ ≤ + <5%) | ++ (5% ≤ ++ <25%) | ++ (5% ≤ ++ <25%) |  |  | 10 to 30 mg/kg |
| CCN(C)C(=O)Oc1ccc2c(c1)[C@H](N(C)C)[C@H](C)OC2.Cl [Example 287] |  |  | + (LOQ ≤ + <5%) | + (LOQ ≤ + <5%) | + (LOQ ≤ + <5%) | + (LOQ ≤ + <5%) | + (LOQ ≤ + <5%) | + (LOQ ≤ + <5%) | + (LOQ ≤ + <5%) | ++ (5% ≤ ++ <25%) | + (LOQ ≤ + <5%) |  |  | > 30 mg/kg |
| CCN(C)C(=O)Oc1ccc2c(c1)[C@H](N(C)C)[C@@H](C)OC2.Cl [Example 288] |  |  | + (LOQ ≤ + <5%) | + (LOQ ≤ + <5%) | + (LOQ ≤ + <5%) | + (LOQ ≤ + <5%) | ++ (5% ≤ ++ <25%) | + (LOQ ≤ + <5%) | + (LOQ ≤ + <5%) | ++ (5% ≤ ++ <25%) | + (LOQ ≤ + <5%) |  |  | > 30 mg/kg |
| cis-3-Isopropylisochroman-4-amine hydrochloride [Example 273] |  | A (≤3 mpk) | + (LOQ ≤ + <5%) | ++ (5% ≤ ++ <25%) | + (LOQ ≤ + <5%) | + (LOQ ≤ + <5%) | ++ (5% ≤ ++ <25%) | ++ (5% ≤ ++ <25%) | + (LOQ ≤ + <5%) | +++ (25% ≤ +++ <50%) | ++ (5% ≤ ++ <25%) |  |  |  |
